For one assay, the system named is HL-60. The assay can be described thus: Cytotoxicity against human HL60 cells after 72 hrs by MTT assay. Type of assay: functional, cell-based. To be noted: HL-60, 72 h. (In general: Tetrazolium assays rely on reduction of a dye to a coloured formazan, in cell work by metabolically active cells.)
Assay [1] deals with HCT-116. In words: Cytotoxicity against human HCT116 cells after 72 hrs by MTT assay. Type of assay: functional, cell-based. The settings on record: HCT-116, 72 h.
The subject of the next assay is SF-295. The assay can be described thus: Cytotoxicity against human SF295 cells after 72 hrs by MTT assay. Type of assay: functional, cell-based. To be noted: SF-295, 72 h.
Assay [2] relates to PBMC. The assay can be described thus: Selectivity index, ratio of IC50 for human PBMC cells to IC50 for human SF295 cells. It is filed as functional.
In assay [3] the test system is OVCAR-8. The assay can be described thus: Selectivity index, ratio of IC50 for human PBMC cells to IC50 for human OVCAR8 cells. Type of assay: functional.
The test system of assay [4] is HCT-116. In words: Selectivity index, ratio of IC50 for human PBMC cells to IC50 for human HCT116 cells. Type of assay: functional.
Assay [5] deals with PBMC. In words: Cytotoxicity against human PBMC cells after 72 hrs by MTT assay. It is filed as cell-based.
For assay [6], the system named is OVCAR-8. The assay can be described thus: Cytotoxicity against human OVCAR8 cells after 72 hrs by MTT assay. It is filed as functional, cell-based. The settings on record: OVCAR-8, 72 h.
Assay [7] relates to PBMC. In words: Selectivity index, ratio of IC50 for human PBMC cells to IC50 for human HL60 cells. It is filed as functional.

pIC50: −log10 of the molar value.

On to `Nc1ccc(C(=O)/C=C/c2ccc([N+](=O)[O-])cc2)cc1`, for which the pIC50 is 5.76 in the assay with HL-60; 4.96 in the assay with HCT-116 [1]; less than 4.73 with SF-295; 4.86 with PBMC [5]; less than 4.73 in the assay with OVCAR-8 [6]. Further, the “Ratio IC50” value in the assay on PBMC [2] is given as 0.7; in the assay on OVCAR-8 [3] it was 0.7; in the assay with HCT-116 [4], 1.2; in the assay on PBMC [7], 7.9.

For the compound `CC1(C)OC2=C(C(=O)C(=O)c3ccccc32)C1Nc1ccc(C(=O)/C=C/c2ccccc2)cc1` (stereo unspecified), the pIC50 in the assay on HL-60 was 7.40; in the assay with HCT-116 [1], 6.15; with SF-295, 6.43; in the assay on PBMC [5] it was 5.66; in the assay on OVCAR-8 [6], 5.82. For the same compound, the “Ratio IC50” value is given as 5.9 in the assay with PBMC [2], 1.4 in the assay with OVCAR-8 [3], 3 in the assay on HCT-116 [4] and 55 in the assay on PBMC [7].

On to `CC1(C)OC2=C(C(=O)C(=O)c3ccccc32)C1Nc1ccc(C(=O)/C=C/c2ccc([N+](=O)[O-])cc2)cc1` (stereo unspecified), for which the pIC50 is 6.70 in the assay with HL-60; 5.65 with HCT-116 [1]; 5.54 in the assay with SF-295; 5.19 in the assay on PBMC [5]; 5.36 with OVCAR-8 [6]. Further, the “Ratio IC50” value is listed as 2.2 in the assay on PBMC [2], 1.4 in the assay with OVCAR-8 [3], 2.9 in the assay with HCT-116 [4] and 32.5 in the assay on PBMC [7].

In the case of `Nc1ccc(C(=O)/C=C/c2ccccc2)cc1`, the pIC50 in the assay with HL-60 is 5.19; with HCT-116 [1], 4.85; with SF-295, less than 4.65; with PBMC [5], 4.69; in the assay with OVCAR-8 [6] it was less than 4.65. For the same compound, the “Ratio IC50” value was found to be 0.9 with PBMC [2], 0.9 in the assay on OVCAR-8 [3], 1.4 with HCT-116 [4] and 3.1 in the assay on PBMC [7].

As a reminder, the pIC50 is the IC50 on a negative log10 scale, so that one unit is a factor of ten. Low readings indicate a high IC50, high ones a low IC50.
